How the values were obtained:
hepatitis B virus = assay: α-interferon treatment of HBV-infected HLCZ01 cells (amount of HBV, quantitative PCR); type: cell-based, hepatitis B virus (in human hepatoma cell line HLCZ01); conditions: based on amount of α-interferon added and processing time (days), FIG. 9
Protocol: FIG. 9 is a column diagram for the human hepatoma cell line HLCZ01 according to the above second embodiment of the present invention, illustrating the amount of HBV with respect to the amount of interferon used and time (days).
The human hepatoma cell line HLCZ01 is placed on the 60 mm culture plate. After 24 hours, the medium (DMEM medium) is replaced to the mixture of a supernatant of HepaG2.2.15 cells with a complete medium (1:1 by volume ratio), and then the human hepatoma cell line HLCZ01 is continuously cultured. The cells were passaged every 3 to 5 days. DNA from HBV-infected human hepatoma cell line HLCZ01 was isolated every three days. One microgram of DNA from HBV-infected HLCZ01 cells is used as template for processing quantitative PCR and HBV DNA level in the human hepatoma cell line HLCZ01 is detected.
According to the human hepatoma cell line HLCZ01 of the present invention, the human hepatoma cell line HLCZ01 can also be used for the preparation, screening or evaluating the anti-HBV drugs. […] Therefore, the human hepatoma cell line HLCZ01 of the present invention can be used for the preparation, screening or evaluating the anti-HBV drugs.

hepatitis C virus = assay: α-interferon treatment of HCV-infected HLCZ01 cells (amount of HCV, quantitative PCR); type: cell-based, hepatitis C virus (in human hepatoma cell line HLCZ01); conditions: with respect to doses of α-interferon and time (hours), FIG. 10
Protocol: FIG. 10 is a column diagram for the human hepatoma cell line HLCZ01 according to the above first embodiment of the present invention, illustrating the amount of HCV with respect to the amount of interferon used and time (hours).
1. The human hepatoma cell line HLCZ01 cells and Huh7.5 cells are placed on the 6-well cell culture plate (200,000/well). After 24 hours, the medium is replaced with medium containing 2% FBS, and the cells are infected by HCV. The medium is changed after 24 hours. Huh7.5 cells and human hepatoma cell line HLCZ01 are cultured for 1 day, 2 days, 3 days and 6 days respectively, and TRIZOL is used to extract total RNA from the above mentioned two cell lines at different time points after virus infection. One microgram of the total RNA is reversely transcribed into cDNA, and 1 μL of cDNA are used as templates for processing quantitative PCR.
According to the human hepatoma cell line HLCZ01 of the present invention, the human hepatoma cell line HLCZ01 can also be used for the preparation, screening or evaluating anti-HCV drugs. […] Therefore, the human hepatoma cell line HLCZ01 of the present invention can be used for the preparation, screening or evaluating the anti-HCV drugs.

HLCZ01 cells = assay: TRAIL sensitivity of HLCZ01 cells by flow cytometry; type: cell-based, human; conditions: HLCZ01 cells treated with TRAIL, FIG. 11

Row | Molecule | amount of HBV in the human hepatoma cell line HLCZ01 (hepatitis B virus) | amount of virus in HCV-infected HLCZ01 cells (hepatitis C virus) | death of the HLCZ01 cells (HLCZ01 cells)
1 | α-interferon | able to reduce the amount of HBV in the human hepatoma cell line HLCZ01 | able to reduce the amount of virus in HCV-infected HLCZ01 cells | –
2 | TRAIL (protein, UniProt P50591 1-281, looked up, TRAIL at the current phase II of clinical trail) Tumor necrosis factor ligand …: MAMMEVQGGPSLGQTCVLIVIFTVLLQSLCVAVTYVYFTNELKQMQDKYSKSGIACFLKEDDSYWDPNDEESMNSPCWQVKWQLRQLVRKMILRTSEETISTVQEKQQNISPLVRERGPQRVAAHITGTRGRSNTLSSPNSKNEKALGRKINSWESSRSGHSFLSNLHLRNGELVIHEKGFYYIYSQTYFRFQEEIKENTKNDKQMVQYIYKYTSYPDPILLMKSARNSCWSKDAEYGLYSIYQGGIFELKENDRIFVSVTNEHLIDMDHEASFFGAFLVG | – | – | able to induce the death of the HLCZ01 cells

Reference: patent US9989520B2, “Human hepatoma cell line HLCZ01 and uses thereof” (HUNAN PROVINCIAL TUMOR HOSPITAL, priority 2013, dated 2018)
